Source: ChEMBL document CHEMBL5154941, “Structural Modifications of Nimodipine Lead to Novel PDE1 Inhibitors with Anti-pulmonary Fibrosis Effects” (J Med Chem, 2022)

Target: Dual specificity calcium/calmodulin-dependent 3',5'-cyclic nucleotide phosphodiesterase 1C (Homo sapiens, UniProt Q14123)
Test: Inhibition of PDE1C (147 to 531 residues) (unknown origin) expressed in Escherichia coli BL21 using [3H]-cGMP as substrate measured for 15 mins by liquid scintillation counter method

Dual specificity calcium/calmodulin-dependent 3',5'-cyclic nucleotide phosphodiesterase 1C, sequence (Q14123 whole entry, the tested form may be a part): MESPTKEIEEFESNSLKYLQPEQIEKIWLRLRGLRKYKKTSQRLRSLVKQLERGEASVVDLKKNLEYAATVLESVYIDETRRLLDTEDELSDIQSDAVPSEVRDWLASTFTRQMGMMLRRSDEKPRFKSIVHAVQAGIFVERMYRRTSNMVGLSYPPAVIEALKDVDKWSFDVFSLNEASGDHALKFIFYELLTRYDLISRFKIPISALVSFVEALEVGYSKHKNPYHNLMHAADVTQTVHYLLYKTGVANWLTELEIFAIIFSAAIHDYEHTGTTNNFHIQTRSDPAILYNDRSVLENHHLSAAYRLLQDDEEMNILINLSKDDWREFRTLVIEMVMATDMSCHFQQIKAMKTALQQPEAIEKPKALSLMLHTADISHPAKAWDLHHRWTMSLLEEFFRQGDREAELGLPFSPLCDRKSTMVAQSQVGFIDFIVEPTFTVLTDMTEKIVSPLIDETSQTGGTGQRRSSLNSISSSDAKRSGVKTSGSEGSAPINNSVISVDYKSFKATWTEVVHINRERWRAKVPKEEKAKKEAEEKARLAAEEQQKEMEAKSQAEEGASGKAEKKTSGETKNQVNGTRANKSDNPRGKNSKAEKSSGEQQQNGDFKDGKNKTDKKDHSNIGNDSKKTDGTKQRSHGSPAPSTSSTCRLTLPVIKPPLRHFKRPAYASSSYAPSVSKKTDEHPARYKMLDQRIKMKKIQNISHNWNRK

- IC50: 189 nM
SMILES: CC1=C(C(=O)OCc2cncs2)C(c2ccc3c(cnn3C)c2)C(C(=O)OCc2cncs2)=C(C)N1
